Read-outs that look alike come from different tables or passages of the source.
What was measured:
[1] = system: LoVo-Dox; assay: Inhibition of cells growth by colorimetric (SRB) assay, LoVo-Dox; conditions: for GI50 / CC50: Homo sapiens, 48 h; for GI50: read-out: GI50 LOVO-DOX, SRB assay, 48 hours exposure; for CC50: read-out: LC50 LOVO-DOX, SRB assay, 48 hours exposure; for TGI LOVO-DOX: SRB assay, 48 hours exposure
Summary of the method: (§1)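 Read-out is sulforhodamine B protein stain (OD 490 nm) after cold TCA fixation, following 48 h continuous exposure to samples spanning 10 to 10^−8 μg/ml.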

[2] = system: DU-145; assay: Inhibition of cells growth by colorimetric (SRB) assay, DU-145; conditions: for CC50: read-out: LC50 DU-145, SRB assay, 48 hours exposure
Summary of the method: as §1

[3] = system: LoVo; assay: Inhibition of cells growth by colorimetric (SRB) assay, LoVo; conditions: for CC50: read-out: LC50 LOVO, SRB assay, 48 hours exposure
Summary of the method: as §1

[4] = system: K-562; assay: Inhibition of cells growth by colorimetric (SRB) assay, K-562; conditions: for GI50 / CC50: Homo sapiens, K562, 48 h; for GI50: read-out: GI50 K-562, SRB assay, 48 hours exposure; for CC50: read-out: LC50 K-562, SRB assay, 48 hours exposure; for TGI K-562: SRB assay, 48 hours exposure
Summary of the method: as §1

[5] = system: A-549; assay: Inhibition of cells growth by colorimetric (SRB) assay, A-549; conditions: for CC50: read-out: LC50 A-549, SRB assay, 48 hours exposure
Summary of the method: as §1

[6] = system: IGROV-ET; assay: Inhibition of cells growth by colorimetric (SRB) assay, IGROV-ET; conditions: for CC50: read-out: LC50 IGROV-ET, SRB assay, 48 hours exposure
Summary of the method: as §1

[7] = system: LNCaP; assay: Inhibition of cells growth by colorimetric (SRB) assay, LNCaP
Summary of the method: as §1

[8] = system: SK-OV-3; assay: Inhibition of cells growth by colorimetric (SRB) assay, SK-OV-3; conditions: for CC50: read-out: LC50 SKOV-3, SRB assay, 48 hours exposure
Summary of the method: as §1

[9] = system: SK-MEL-28; assay: Inhibition of cells growth by colorimetric (SRB) assay, SK-MEL-28; conditions: for CC50: read-out: LC50 MEL-28, SRB assay, 48 hours exposure
Summary of the method: as §1

[10] = system: HT-29; assay: Inhibition of cells growth by colorimetric (SRB) assay, HT-29; conditions: for GI50 / CC50: Homo sapiens, HT-29, 48 h; for GI50: read-out: GI50 HT-29, SRB assay, 48 hours exposure; for CC50: read-out: LC50 HT-29, SRB assay, 48 hours exposure; for TGI HT-29: SRB assay, 48 hours exposure
Summary of the method: as §1

[11] = system: IGROV-1; assay: Inhibition of cells growth by colorimetric (SRB) assay, IGROV-1
Summary of the method: as §1

[12] = system: SK-BR-3; assay: Inhibition of cells growth by colorimetric (SRB) assay, SK-BR-3; conditions: for CC50: read-out: LC50 SK-BR-3, SRB assay, 48 hours exposure
Source text: The finality of these assays is to interrupt the growth of a “in vitro” tumor cell culture by means a continued exhibition of the cells to the sample to be testing.
This form of the assay employs 96 well cell culture microplates of 9 mm diameter (Faircloth, 1988; Mosmann, 1983). Most of the cell lines are obtained from American Type Culture Collection (ATCC) derived from different human cancer types.
Cells are maintained in RPMI 1640 10% FBS, supplemented with 0.1 g/l penicillin and 0.1 g/l streptomycin sulphate and then incubated at 37° C., 5% CO2 and 98% humidity. For the experiments, cells were harvested from subconfluent cultures using trypsin and resuspended in fresh medium before plating.
Cells are seeded in 96 well microtiter plates, at 5×10^3 cells per well in aliquots of 195 μl medium, and they are allowed to attach to the plate surface by growing in drug free medium for 18 hours. Afterward, samples are added in aliquots of 5 μl in a ranging from 10 to 10^−8 μg/ml, dissolved in DMSO/EtOH/PBS (0.5:0.5:99). After 48 hours exposure, the antitumor effect are measured by the SRB methodology: cells are fixed by adding 50 μl of cold 50% (wt/vol) trichloroacetic acid (TCA) and incubating for 60 minutes at 4° C. Plates are washed with deionized water and dried. One hundred μl of SRB solution (0.4% wt/vol in 1% acetic acid) is added to each microtiter well and incubated for 10 minutes at room temperature. Unbound SRB is removed by washing with 1% acetic acid. Plates are air dried and bound stain is solubilized with Tris buffer. Optical densities are read on a automated spectrophotometric plate reader at a single wavelength of 490 nm.
The values for mean +/−SD of data from triplicate wells are calculated. Some parameters for cellular responses can be calculated: GI=growth inhibition, TGI=total growth inhibition (cytostatic effect) and LC=cell killing (cytotoxic effect).

[13] = system: PANC-1; assay: Inhibition of cells growth by colorimetric (SRB) assay, PANC-1; conditions: for CC50: read-out: LC50 PANC-1, SRB assay, 48 hours exposure
Summary of the method: as §1

## Nc1nccc2c(-c3ccncn3)c3c(O)ccnc3n12 [Compound 100]
[1]
  GI50: 1.18 µM
  CC50: ≥ 25.5 µM
  TGI LOVO-DOX: 1.30E−05
[2]; Homo sapiens, DU-145, 48 h
  CC50: ≥ 25.5 µM
[2]; SRB assay, 48 hours exposure
  TGI DU-145: 5.25E−06
[2]; read-out: GI50 DU-145, SRB assay, 48 hours exposure
  GI50: 0.739 µM
[3]; Homo sapiens, LoVo, 48 h
  CC50: ≥ 25.5 µM
[3]; SRB assay, 48 hours exposure
  TGI LOVO: 5.12E−06
[3]; read-out: GI50 LOVO, SRB assay, 48 hours exposure
  GI50: 0.877 µM
[4]
  GI50: 6.78 µM
  CC50: ≥ 25.5 µM
  TGI K-562: 1.49E−05
[5]; Homo sapiens, A549, 48 h
  CC50: ≥ 25.5 µM
[5]; SRB assay, 48 hours exposure
  TGI A-549: 2.63E−06
[5]; read-out: GI50 A-549, SRB assay, 48 hours exposure
  GI50: 0.678 µM
[6]; Homo sapiens, 48 h
  CC50: 22.9 µM
[6]; SRB assay, 48 hours exposure
  TGI IGROV-ET: 2.33E−06
[6]; read-out: GI50 IGROV-ET, SRB assay, 48 hours exposure
  GI50: 0.683 µM
[7]; SRB assay, 48 hours exposure
  TGI LN-caP: 3.29E−06
[7]; read-out: GI50 LN-caP, SRB assay, 48 hours exposure
  GI50: 1.05 µM
[7]; read-out: LC50 LN-caP, SRB assay, 48 hours exposure
  CC50: 10.9 µM
[8]; Homo sapiens, SK-OV-3, 48 h
  CC50: ≥ 25.5 µM
[8]; SRB assay, 48 hours exposure
  TGI SKOV-3: 9.84E−06
[8]; read-out: GI50 SKOV-3, SRB assay, 48 hours exposure
  GI50: 1.74 µM
[9]; Homo sapiens, SK-MEL-28, 48 h
  CC50: ≥ 25.5 µM
[9]; SRB assay, 48 hours exposure
  TGI MEL-28: 8.08E−06
[9]; read-out: GI50 MEL-28, SRB assay, 48 hours exposure
  GI50: 1.32 µM
[10]
  GI50: 14.9 µM
  CC50: ≥ 25.5 µM
  TGI HT-29: 2.55E−05
[11]; SRB assay, 48 hours exposure
  TGI IGROV: 4.69E−06
[11]; read-out: GI50 IGROV, SRB assay, 48 hours exposure
  GI50: 1.4 µM
[11]; read-out: LC50 IGROV, SRB assay, 48 hours exposure
  CC50: 13.2 µM
[12]; Homo sapiens, SK-BR-3, 48 h
  CC50: 10.6 µM
[12]; SRB assay, 48 hours exposure
  TGI SK-BR-3: 1.52E−06
[12]; read-out: GI50 SK-BR-3, SRB assay, 48 hours exposure
  GI50: 464 nM
[13]; Homo sapiens, PANC-1, 48 h
  CC50: ≥ 25.5 µM
[13]; SRB assay, 48 hours exposure
  TGI PANC-1: 2.55E−05
[13]; read-out: GI50 PANC-1, SRB assay, 48 hours exposure
  GI50: 4.92 µM

## COc1nccc(-c2c3c(O)ccnc3n3c(N)nccc23)n1 [Compound 105]
[1]
  GI50: 21.9 µM
  CC50: 32.4 µM
  TGI LOVO-DOX: 3.24E−05
[2]; Homo sapiens, DU-145, 48 h, read-out: GI50 DU-145, SRB assay, 48 hours exposure
  GI50: 14.2 µM
[2]; Homo sapiens, DU-145, 48 h
  CC50: 32.4 µM
[2]; SRB assay, 48 hours exposure
  TGI DU-145: 3.24E−05
[3]; Homo sapiens, LoVo, 48 h, read-out: GI50 LOVO, SRB assay, 48 hours exposure
  GI50: 14.3 µM
[3]; Homo sapiens, LoVo, 48 h
  CC50: 32.4 µM
[3]; SRB assay, 48 hours exposure
  TGI LOVO: 3.24E−05
[4]
  GI50: 12.8 µM
  CC50: 32.4 µM
  TGI K-562: 2.93E−05
[5]; Homo sapiens, A549, 48 h, read-out: GI50 A-549, SRB assay, 48 hours exposure
  GI50: 7.49 µM
[5]; Homo sapiens, A549, 48 h
  CC50: 32.4 µM
[5]; SRB assay, 48 hours exposure
  TGI A-549: 3.24E−05
[6]; Homo sapiens, 48 h, read-out: GI50 IGROV-ET, SRB assay, 48 hours exposure
  GI50: 8.17 µM
[6]; Homo sapiens, 48 h
  CC50: 32.4 µM
[6]; SRB assay, 48 hours exposure
  TGI IGROV-ET: 2.23E−05
[7]; Homo sapiens, LNCaP, 48 h, read-out: GI50 LN-caP, SRB assay, 48 hours exposure
  GI50: 5.48 µM
[7]; Homo sapiens, LNCaP, 48 h, read-out: LC50 LN-caP, SRB assay, 48 hours exposure
  CC50: 32.4 µM
[7]; SRB assay, 48 hours exposure
  TGI LN-caP: 1.75E−05
[8]; Homo sapiens, SK-OV-3, 48 h, read-out: GI50 SKOV-3, SRB assay, 48 hours exposure
  GI50: 8.14 µM
[8]; Homo sapiens, SK-OV-3, 48 h
  CC50: 32.4 µM
[8]; SRB assay, 48 hours exposure
  TGI SKOV-3: 2.91E−05
[9]; Homo sapiens, SK-MEL-28, 48 h, read-out: GI50 MEL-28, SRB assay, 48 hours exposure
  GI50: 13.8 µM
[9]; Homo sapiens, SK-MEL-28, 48 h
  CC50: 32.4 µM
[9]; SRB assay, 48 hours exposure
  TGI MEL-28: 3.24E−05
[10]
  GI50: 32.4 µM
  CC50: 32.4 µM
  TGI HT-29: 3.24E−05
[11]; Homo sapiens, IGROV-1, 48 h, read-out: GI50 IGROV, SRB assay, 48 hours exposure
  GI50: 6.26 µM
[11]; Homo sapiens, IGROV-1, 48 h, read-out: LC50 IGROV, SRB assay, 48 hours exposure
  CC50: 27.5 µM
[11]; SRB assay, 48 hours exposure
  TGI IGROV: 1.31E−05
[12]; Homo sapiens, SK-BR-3, 48 h, read-out: GI50 SK-BR-3, SRB assay, 48 hours exposure
  GI50: 2420 nM
[12]; Homo sapiens, SK-BR-3, 48 h
  CC50: 32.4 µM
[12]; SRB assay, 48 hours exposure
  TGI SK-BR-3: 1.26E−05
[13]; Homo sapiens, PANC-1, 48 h, read-out: GI50 PANC-1, SRB assay, 48 hours exposure
  GI50: 11.8 µM
[13]; Homo sapiens, PANC-1, 48 h
  CC50: 32.4 µM
[13]; SRB assay, 48 hours exposure
  TGI PANC-1: 3.24E−05
